Patent publication US20250340551A1, “SMALL MOLECULE MODULATORS OF STAT6” (Gilead Sciences, Inc., priority 2024, published 2025)

Tested on: Eotaxin-3 (CCL26) release in human whole blood stimulated with IL-4
Assay: Human whole blood eotaxin-3 assay (IL-4 stimulated, Eotaxin-3 release)
Type: cell-based
Settings: Homo sapiens; for EC50: Hec50, 48 h; for Emax: 48 h
Experimental: This was a human whole blood assay using recombinant human Interleukin 4 to stimulate the blood and measuring the ability of the test compounds to inhibit eotaxin-3 release. The biological activities of the test compounds have been tested in human whole blood stimulated with IL-4 measuring Eotaxin-3 release. The test compounds were added to 384 well clear flat-bottom plate in a 4-fold serial dilution in triplicates using a liquid handler. Human whole blood stabilized in lithium-heparin tubes was added in a volume of 65 μL per well, resulting in a final DMSO concentration of 0.5%. The plate is incubated for 2 h at 37° C. under 5% CO2/95% air. Subsequently, 5 μL of recombinant human IL-4 (R&D Systems, cat #204-ILB) was added to the wells to a final concentration of 400 pM. The plate was incubated for 48 h at 37° C. under 5% CO2/95% air. The plate was spun down for 10 minutes at 500×g and 20 μL supernatant was harvested and transferred to a 384 well v-bottom plate using a liquid handler and stored at −20° C. until further analysis. 10 μL supernatant was used to measure the level of Eotaxin-3 (CCL26) using Human Eotaxin-3 MSD kit from Mesocsale (Cat #K251UEK-4). The assay was performed according to the manufacture instructions.
The data from the human whole blood eotaxin-3 assay is shown below for Examples 1u2, 1x1, 1af26, and 1af36 (where the effect in % is plotted against the test concentration in M on a log-scale).

| EC50 [nM] | Compound | Emax [%] |
| --- | --- | --- |
| 3290 | CNc1ccc(-c2ccnc3c2cc([C@H](C)N2CC=C(c4c(C)cc(C(=O)N(C)C)cc4F)CC2)n3C)nc1 [Example 1z40, (S)-3-fluoro-N,N,5-trimethyl-4-(1-(1-(1-methyl-4-(5-(methylamino)pyridin-2-yl)-1H-pyrrolo[2,3-b]pyridin-2-yl)ethyl)-1,2,3,6-tetrahydropyridin-4-yl)benzamide] | – |
| 204 | CN(C)C(=O)c1cc(F)c(C2=CCN(Cc3cc4c(-c5ccc(N)nn5)ccnc4n3C)CC2)c(F)c1 [Example 1z18, 4-(1-((4-(6-aminopyridazin-3-yl)-1-methyl-1H-pyrrolo[2,3-b]pyridin-2-yl)methyl)-1,2,3,6-tetrahydropyridin-4-yl)-3,5-difluoro-N,N-dimethylbenzamide] | – |
| 308 | Cc1cc(C(=O)N(C)C)ccc1C1=CCN(Cc2cc3c(-c4ccc(N)nn4)ccnc3n2C)CC1 [Example 1af76, 4-(1-((4-(6-Aminopyridazin-3-yl)-1-methyl-1H-pyrrolo[2,3-b]pyridin-2-yl)methyl)-1,2,3,6-tetrahydropyridin-4-yl)-N,N,3-trimethylbenzamide] | – |
| – | CN(C)C(=O)c1ccc(C2=CCN(Cc3cc4c(-c5ccc(N)nc5)ccnc4n3C)CC2)cc1F [Example 1z7, 4-(1-((4-(6-aminopyridin-3-yl)-1-methyl-1H-pyrrolo[2,3-b]pyridin-2-yl)methyl)-1,2,3,6-tetrahydropyridin-4-yl)-2-fluoro-N,N-dimethylbenzamide] | 20 to 30 |
| 1090 | [2H]C([2H])([2H])N(C(=O)c1ccc(C2CCN([C@@H](C)c3cc4c(-c5ncc(N)cc5OC)ccnc4n3C)CC2)cc1)C([2H])([2H])[2H] [Example 1af68, (S)-4-(1-(1-(4-(5-amino-3-methoxypyridin-2-yl)-1-methyl-1H-pyrrolo[2,3-b]pyridin-2-yl)ethyl)piperidin-4-yl)-N,N-bis(methyl-d3)benzamide] | – |
| – | Cc1cc(C(=O)N(C)C)nnc1C1=CCN(Cc2cc3c(-c4ccc(N)nc4)ccnc3n2C)CC1 [Example 1z6, 6-(1-((4-(6-aminopyridin-3-yl)-1-methyl-1H-pyrrolo[2,3-b]pyridin-2-yl)methyl)-1,2,3,6-tetrahydropyridin-4-yl)-N,N,5-trimethylpyridazine-3-carboxamide] | < 20 |
| 262 | [2H]C([2H])([2H])N(C(=O)c1ccc(C2CCN([C@@H](C)c3cc4c(-c5ccc(NCCO)nc5)ccnc4n3C)CC2)cc1)C([2H])([2H])[2H] [Example 1af69, (S)-4-(1-(1-(4-(6-((2-hydroxyethyl)amino)pyridin-3-yl)-1-methyl-1H-pyrrolo[2,3-b]pyridin-2-yl)ethyl)piperidin-4-yl)-N,N-bis(methyl-d3)benzamide] | – |
| 97 | [2H]C([2H])([2H])N(C(=O)c1ccc(C2CCN([C@@H](C)c3cc4c(-c5ccc(N)nc5OC)ccnc4n3C)CC2)cc1)C([2H])([2H])[2H] [Example 1af67, (S)-4-(1-(1-(4-(6-amino-2-methoxypyridin-3-yl)-1-methyl-1H-pyrrolo[2,3-b]pyridin-2-yl)ethyl)piperidin-4-yl)-N,N-bis(methyl-d3)benzamide] | – |
| 94 | CNc1ccc(-c2ccnc3c2cc(CN2CC=C(c4c(C)cc(C(=O)N(C)C)cc4F)CC2)n3C)nn1 [Example 1p17, 3-Fluoro-N,N,5-trimethyl-4-[1-[[1-methyl-4-[6-(methylamino)pyridazin-3-yl]pyrrolo[2,3-b]pyridin-2-yl]methyl]-3,6-dihydro-2H-pyridin-4-yl]benzamide] | – |
| 392 | Cc1cc(C(=O)N(C)C)cnc1C1=CCN(Cc2cc3c(-c4ccc(N)nn4)ccnc3n2C)CC1 [Example 1ae22, 1′-((4-(6-Aminopyridazin-3-yl)-1-methyl-1H-pyrrolo[2,3-b]pyridin-2-yl)methyl)-N,N,3-trimethyl-1′,2′,3′,6′-tetrahydro-[2,4′-bipyridine]-5-carboxamide] | – |
| 110 | CNc1ccc(-c2ccnc3c2cc([C@@H](C)N2CC=C(c4c(C)cc(C(=O)N(C)C)cc4F)CC2)n3C)nc1 [Example 1z41, (R)-3-fluoro-N,N,5-trimethyl-4-(1-(1-(1-methyl-4-(5-(methyl-amino)pyridin-2-yl)-1H-pyrrolo[2,3-b]pyridin-2-yl)ethyl)-1,2,3,6-tetrahydropyridin-4-yl)benzamide] | – |
| 39.5 | [2H]C([2H])([2H])N(C(=O)c1cc(C)c(C2=CCN([C@@H](C)c3cc4c(-c5ccc(NC)nn5)ccnc4n3C)CC2)c(F)c1)C([2H])([2H])[2H] [Example 1z44, (S)-3-fluoro-5-methyl-N,N-bis(methyl-d3)-4-(1-(1-(1-methyl-4-(6-(methylamino)-pyridazin-3-yl)-1H-pyrrolo[2,3-b]pyridin-2-yl)ethyl)-1,2,3,6-tetrahydropyridin-4-yl)benzamide] | – |
| 1710 | CNc1ccc(-c2ccnc3c2cc(CN2CC=C(c4ccc(C(=O)N(C)C)cc4Cl)CC2)n3C)nn1 [Example 1p18, 3-Chloro-N,N-dimethyl-4-[1-[[1-methyl-4-[6-(methylamino)pyridazin-3-yl]pyrrolo[2,3-b]pyridin-2-yl]methyl]-3,6-dihydro-2H-pyridin-4-yl]benzamide] | – |
| – | CNc1ccc(-c2ccnc3c2cc(CN2CC=C(c4ccc(C(=O)N(C)C)cn4)CC2)n3C)nn1 [Example 1p8, N,N-Dimethyl-6-[1-[[1-methyl-4-[6-(methylamino)pyridazin-3-yl]pyrrolo[2,3-b]pyridin-2-yl]methyl]-3,6-dihydro-2H-pyridin-4-yl]pyridine-3-carboxamide] | < 20 |
| 7170 | CN(C)C(=O)c1ccc(C2CCN(Cc3cc4c(-c5ccc(N)c(C(=O)O)n5)ccnc4n3C)CC2)cc1 [Example 1k79, 3-Amino-6-[2-[[4-[4-(dimethylcarbamoyl)phenyl]-1-piperidyl]methyl]-1-methyl-pyrrolo[2,3-b]pyridin-4-yl]pyridine-2-carboxylic acid] | – |
| 3200 | CNc1ccc(-c2ccnc3c2cc(CN2CC=C(c4ccc(C(=O)N(C)C)cc4OC)CC2)n3C)nn1 [Example 1p14, 3-Methoxy-N,N-dimethyl-4-[1-[[1-methyl-4-[6-(methylamino)pyridazin-3-yl]pyrrolo[2,3-b]pyridin-2-yl]methyl]-3,6-dihydro-2H-pyridin-4-yl]benzamide] | – |
| 81.8 | CN(C)C(=O)c1cc(F)c(C2=CCN(Cc3cc4c(-c5ccc(N)nc5)ccnc4n3C)CC2)c(C2CC2)c1 [Example 1z35, 4-(1-((4-(6-aminopyridin-3-yl)-1-methyl-1H-pyrrolo[2,3-b]pyridin-2-yl)methyl)-1,2,3,6-tetrahydropyridin-4-yl)-3-cyclopropyl-5-fluoro-N,N-dimethylbenzamide] | – |
| 726 | [2H]C([2H])([2H])N(C(=O)c1ccc(C2=CCN([C@@H](C)c3cc4c(-c5cnc(N)c(F)c5)ccnc4n3C)CC2)cc1)C([2H])([2H])[2H] [Example 1af56, (S)-4-(1-(1-(4-(6-Amino-5-fluoropyridin-3-yl)-1-methyl-1H-pyrrolo[2,3-b]pyridin-2-yl)ethyl)-1,2,3,6-tetrahydropyridin-4-yl)-N,N-bis(methyl-d3)benzamide] | – |
| 1290 | [2H]C([2H])([2H])N(C(=O)c1ccc(C2=CCN([C@@H](C)c3cc4c(-c5ccc(NC)nn5)ccnc4n3C)CC2)cc1)C([2H])([2H])[2H] [Example 1af60, (S)—N,N-bis(methyl-d3)-4-(1-(1-(1-methyl-4-(6-(methylamino)pyridazin-3-yl)-1H-pyrrolo[2,3-b]pyridin-2-yl)ethyl)-1,2,3,6-tetrahydropyridin-4-yl)benzamide] | – |
| 57 | Cc1cc(C(=O)N(C)C)cc(C)c1C1=CCN(Cc2cc3c(-c4ccc(N)nn4)ccnc3n2C)CC1 [Example 1z12, 4-(1-((4-(6-aminopyridazin-3-yl)-1-methyl-1H-pyrrolo[2,3-b]pyridin-2-yl)methyl)-1,2,3,6-tetrahydropyridin-4-yl)-N,N,3,5-tetramethylbenzamide] | – |
| 335 | CN(C)C(=O)c1cc(F)c(C2=CCN(Cc3cc4c(-c5ccc(N)nc5)ccnc4n3C)CC2)c(F)c1 [Example 1z16, 4-(1-((4-(6-aminopyridin-3-yl)-1-methyl-1H-pyrrolo[2,3-b]pyridin-2-yl)methyl)-1,2,3,6-tetrahydropyridin-4-yl)-3,5-difluoro-N,N-dimethylbenzamide] | – |
| – | [2H]C([2H])([2H])N(C(=O)c1cnc(C2=CCN(Cc3cc4c(-c5cnc(N)cc5F)ccnc4n3C)CC2)nc1)C([2H])([2H])[2H] [Example 1z11, 2-(1-((4-(6-amino-4-fluoropyridin-3-yl)-1-methyl-1H-pyrrolo[2,3-b]pyridin-2-yl)methyl)-1,2,3,6-tetrahydropyridin-4-yl)-N,N-bis(methyl-d3)pyrimidine-5-carboxamide] | 20 to 30 |
| 1670 | [2H]C([2H])([2H])N(C(=O)c1ccc(C2=CCN([C@@H](C)c3cc4c(-c5ncc(N)cc5F)ccnc4n3C)CC2)cc1)C([2H])([2H])[2H] [Example 1af51, (S)-4-(1-(1-(4-(5-Amino-3-fluoropyridin-2-yl)-1-methyl-1H-pyrrolo[2,3-b]pyridin-2-yl)ethyl)-1,2,3,6-tetrahydropyridin-4-yl)-N,N-bis(methyl-d3)benzamide] | – |
| 11.4 | Cc1cc(C(=O)N(C)C)cc(F)c1C1=CCN([C@@H](C)c2cc3c(-c4ccc(N)nn4)ccnc3n2C)CC1 [Example 1af80, (S)-4-(1-(1-(4-(6-aminopyridazin-3-yl)-1-methyl-1H-pyrrolo[2,3-b]pyridin-2-yl)ethyl)-1,2,3,6-tetrahydropyridin-4-yl)-3-fluoro-N,N,5-trimethylbenzamide] | – |
